Where a name gives a salt, the structure may show the parent alone.
Assays:
CDK2/CycE = target: T1, CDK2/CycE (Homo sapiens, UniProt P24941); assay: CDK2/CycE high ATP kinase assay (TR-FRET, 2 mM ATP); format: biochemical; conditions: Method 2b
T1 construct: GST; purchased ProQinase GmbH (Freiburg, Germany); host or cells: insect cells (Sf9)
Description: 2b. CDK2/CycE High ATP Kinase Assay:
CDK2/CycE-inhibitory activity of compounds of the present invention at 2 mM adenosine-tri-phosphate (ATP) was quantified employing the CDK2/CycE TR-FRET (TR-FRET=Time Resolved Fluorescence Energy Transfer) assay as described in the following paragraphs.
Recombinant fusion proteins of GST and human CDK2 and of GST and human CycE, expressed in insect cells (Sf9) and purified by Glutathion-Sepharose affinity chromatography, were purchase from ProQinase GmbH (Freiburg, Germany). As substrate for the kinase reaction biotinylated peptide biotin-Ttds-[…] (C-terminus in amid form) was used which can be purchased e.g. form the company JERINI peptide technologies (Berlin, Germany).
For the assay 50 nl of a 100 fold concentrated solution of the test compound in DMSO was pipetted into a black low volume 384 well microtiter plate (Greiner Bio-One, Frickenhausen, Germany), 2 μl of a solution of CDK2/CycE in aqueous assay buffer [50 mM Tris/HCl pH 8.0, 10 mM MgCl2, 1.0 mM dithiothreitol, 0.1 mM sodium ortho-vanadate, 0.01% (v/v) Nonidet-P40 (Sigma)] were added and the mixture was incubated for 15 min at 22° C. to allow pre-binding of the test compounds to the enzyme before the start of the kinase reaction. Then the kinase reaction was started by the addition of 3 μl of a solution ATP (3.33 mM=>final conc. in the 5 μl assay volume is 2 mM) and substrate (1.25 μM=>final conc. in the 5 μl assay volume is 0.75 μM) in assay buffer and the resulting mixture was incubated for a reaction time of 25 min at 22° C. The concentration of CDK2/CycE was adjusted depending of the activity of the enzyme lot and was chosen appropriate to have the assay in the linear range, typical concentrations were in the range of 15 ng/ml. The reaction was stopped by the addition of 5 μl of a solution of TR-FRET detection reagents (0.2 μM streptavidine-XL665 [Cisbio Bioassays, Codolet, France] and 1 nM anti-RB(pSer807/pSer811)-antibody from BD Pharmingen [#558389] and 1.2 nM LANCE EU-W1024 labeled anti-mouse IgG antibody [Perkin-Elmer, product no. AD0077, as an alternative a Terbium-cryptate-labeled anti-mouse IgG antibody from Cisbio Bioassays can be used]) in an aqueous EDTA-solution (100 mM EDTA, 0.2% (w/v) bovine serum albumin in 100 mM HEPES/NaOH pH 7.0).
(§1) The resulting mixture was incubated 1 h at 22° C. to allow the formation of complex between the phosphorylated biotinylated peptide and the detection reagents. Subsequently the amount of phosphorylated substrate was evaluated by measurement of the resonance energy transfer from the Eu-chelate to the streptavidine-XL. Therefore, the fluorescence emissions at 620 nm and 665 nm after excitation at 350 nm were measured in a TR-FRET reader, e.g. a Rubystar (BMG Labtechnologies, Offenburg, Germany) or a Viewlux (Perkin-Elmer). The ratio of the emissions at 665 nm and at 622 nm was taken as the measure for the amount of phosphorylated substrate.

CDK9/CycT1 = target: T2, CDK9/CycT1 (Homo sapiens, UniProt P50750); assay: CDK9/CycT1 high ATP kinase assay (TR-FRET, 2 mM ATP); format: biochemical; conditions: Method 1b
T2 construct: Recombinant full-length His-tagged human CDK9 and CycT1; His; purchased Invitrogen PV4131; host or cells: insect cells
T2 sequence (P50750 whole entry): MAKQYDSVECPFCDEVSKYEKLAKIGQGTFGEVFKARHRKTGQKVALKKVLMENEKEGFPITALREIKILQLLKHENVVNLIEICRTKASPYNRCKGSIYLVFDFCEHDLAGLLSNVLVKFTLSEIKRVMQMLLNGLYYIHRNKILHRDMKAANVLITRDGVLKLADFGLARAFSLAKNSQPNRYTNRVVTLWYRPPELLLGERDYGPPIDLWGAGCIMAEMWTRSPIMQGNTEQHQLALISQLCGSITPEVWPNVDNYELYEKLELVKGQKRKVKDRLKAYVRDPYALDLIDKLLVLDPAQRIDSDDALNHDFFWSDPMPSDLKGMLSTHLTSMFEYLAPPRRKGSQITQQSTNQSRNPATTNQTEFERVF
T2 sequence (O60563 whole entry partner): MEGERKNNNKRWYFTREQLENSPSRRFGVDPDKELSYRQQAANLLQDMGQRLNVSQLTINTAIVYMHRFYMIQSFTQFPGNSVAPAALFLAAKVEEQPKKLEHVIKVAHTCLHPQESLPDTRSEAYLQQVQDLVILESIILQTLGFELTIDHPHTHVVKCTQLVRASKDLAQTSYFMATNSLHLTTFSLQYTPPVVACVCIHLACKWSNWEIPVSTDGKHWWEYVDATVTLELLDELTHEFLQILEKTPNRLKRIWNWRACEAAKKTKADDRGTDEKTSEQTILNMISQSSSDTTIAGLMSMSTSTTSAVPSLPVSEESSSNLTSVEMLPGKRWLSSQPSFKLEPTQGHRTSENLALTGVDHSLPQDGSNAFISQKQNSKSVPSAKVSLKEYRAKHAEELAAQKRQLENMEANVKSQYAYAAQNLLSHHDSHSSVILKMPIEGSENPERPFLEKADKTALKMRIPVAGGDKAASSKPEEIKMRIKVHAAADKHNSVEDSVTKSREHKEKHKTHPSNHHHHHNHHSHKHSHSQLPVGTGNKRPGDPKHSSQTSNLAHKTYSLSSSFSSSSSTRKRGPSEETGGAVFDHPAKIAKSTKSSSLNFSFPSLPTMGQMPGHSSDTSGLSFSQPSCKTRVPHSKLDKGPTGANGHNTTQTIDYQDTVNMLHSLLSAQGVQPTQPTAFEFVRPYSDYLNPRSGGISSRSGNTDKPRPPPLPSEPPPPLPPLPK
Description: 1b. CDK9/CyeT1 High ATP Kinase Assay
CDK9/CycT1-inhibitory activity of compounds of the present invention at a high ATP concentration after preincubation of enzyme and test compounds was quantified employing the CDK9/CycT1 TR-FRET assay as described in the following paragraphs.
Recombinant full-length His-tagged human CDK9 and CycT1, expressed in insect cells and purified by Ni-NTA affinity chromatography, were purchase from Invitrogen (Cat. No PV4131). As substrate for the kinase reaction biotinylated peptide biotin-Ttds-[…] (C-terminus in amid form) was used which can be purchased e.g. form the company JERINI peptide technologies (Berlin, Germany). For the assay 50 nl of a 100 fold concentrated solution of the test compound in DMSO was pipetted into a black low volume 384 well microtiter plate (Greiner Bio-One, Frickenhausen, Germany), 2 μl of a solution of CDK9/CycT1 in aqueous assay buffer [50 mM Tris/HCl pH 8.0, 10 mM MgCl2, 1.0 mM dithiothreitol, 0.1 mM sodium ortho-vanadate, 0.01% (v/v) Nonidet-P40 (Sigma)] were added and the mixture was incubated for 15 min at 22° C. to allow pre-binding of the test compounds to the enzyme before the start of the kinase reaction. Then the kinase reaction was started by the addition of 3 μl of a solution of adenosine-tri-phosphate (ATP, 3.3 mM=>final conc. in the 5 μl assay volume is 2 mM) and substrate (1.67 μM=>final conc. in the 5 μl assay volume is 1 μM) in assay buffer and the resulting mixture was incubated for a reaction time of 25 min at 22° C.
as §1, with “was” for “were”, “HTRF” for “TR-FRET”

Row | IC50 (CDK2/CycE) [nM] | IC50 (CDK9/CycT1) [nM] | Structure (SMILES)
1 | 5860 | – | COc1cc(F)ccc1-c1cc(Nc2cc(CS(C)(=N)=O)ccn2)ncc1F (racemic) [Example 1, (rac)-5-Fluoro-4-(4-fluoro-2-methoxyphenyl)-N-{4-[(S-methylsulfonimidoyl)methyl]pyridin-2-yl}pyridin-2-amine]
2 | 1010 | 2 | COc1cc(F)ccc1-c1cc(Nc2cc(CS(C)(=N)=O)cc(C)n2)ncc1F (racemic) [Example 4, (rac)-5-Fluoro-4-(4-fluoro-2-methoxyphenyl)-N-{6-methyl-4-[(S-methylsulfonimidoyl)methyl]pyridin-2-yl}pyridin-2-amine]
3 | 1770 | 3 | COc1cc(F)ccc1-c1cc(Nc2cc(CS(C)(=N)=O)c(Br)c(C)n2)ncc1F (racemic) [Example 5, (rac)-5-Bromo-N-[5-fluoro-4-(4-fluoro-2-methoxyphenyl)pyridin-2-yl]-6-methyl-4-[(S-methylsulfonimidoyl)methyl]pyridin-2-amine]
4 | 84 | 1 | COc1cc(CS(C)(=N)=O)cc(Nc2cc(-c3ccc(F)cc3OC)c(F)cn2)n1 (racemic) [Example 6, (rac)-5-Fluoro-4-(4-fluoro-2-methoxyphenyl)-N-{6-methoxy-4-[(S-methylsulfonimidoyl)methyl]pyridin-2-yl}pyridin-2-amine]
5 | 630 | 2 | COc1cc(F)ccc1-c1cc(Nc2cc(CS(C)(=N)=O)cc(Cl)n2)ncc1F (racemic) [Example 7, (rac)-N-{6-Chloro-4-[(S-methylsulfonimidoyl)methyl]pyridin-2-yl}-5-fluoro-4-(4-fluoro-2-methoxyphenyl)pyridin-2-amine]
6 | 4190 | 14 | COc1cc(F)ccc1-c1cc(Nc2cc(CS(=N)(=O)CCO)ccn2)ncc1F (racemic) [Example 8, (rac)-2-{S-[(2-{[5-Fluoro-4-(4-fluoro-2-methoxyphenyl)pyridin-2-yl]amino}pyridin-4-yl)methyl]sulfonimidoyl}ethanol]
7 | 4230 | 6 | COc1cc(F)ccc1-c1cc(Nc2cc(CS(=N)(=O)CCN)ccn2)ncc1F (racemic) [Example 9, (rac)-N-(4-{[S-(2-Aminoethyl)sulfonimidoyl]methyl}pyridin-2-yl)-5-fluoro-4-(4-fluoro-2-methoxyphenyl)pyridin-2-amine]
8 | 2920 | 1 | CCOC(=O)N=S(C)(=O)Cc1ccnc(Nc2cc(-c3ccc(F)cc3OC)c(F)cn2)c1 (racemic) [Example 11, (rac)-Ethyl{[(2-{[5-fluoro-4-(4-fluoro-2-methoxyphenyl)pyridin-2-yl]amino}pyridin-4-yl)methyl](methyl)oxido-λ^6-sulfanylidene}carbamate]
9 | 3070 | 2 | CCNC(=O)N=S(C)(=O)Cc1ccnc(Nc2cc(-c3ccc(F)cc3OC)c(F)cn2)c1 (racemic) [Example 12, (rac)-1-Ethyl-3-{[(2-{[5-fluoro-4-(4-fluoro-2-methoxyphenyl)pyridin-2-yl]amino}pyridin-4-yl)methyl](methyl)oxido-λ^6-sulfanylidene}urea]
10 | 3690 | 1 | COc1cc(F)ccc1-c1cc(Nc2cc(CS(C)(=O)=NC(C)=O)ccn2)ncc1F (racemic) [Example 13, (rac)-N-{[(2-{[5-Fluoro-4-(4-fluoro-2-methoxyphenyl)pyridin-2-yl]amino}pyridin-4-yl)methyl](methyl)oxido-λ^6-sulfanylidene}acetamide]
11 | 123 | 1 | CCOC(=O)N=S(C)(=O)Cc1cc(Nc2cc(-c3ccc(F)cc3OC)c(F)cn2)nc(OC)c1 (racemic) [Example 15, (rac)-ethyl{[(2-{[5-fluoro-4-(4-fluoro-2-methoxyphenyl)pyridin-2-yl]amino}-6-methoxypyridin-4-yl)methyl](methyl)oxido-λ^6-sulfanylidene}carbamate]
12 | 886 | 1.8 | COc1cc(F)ccc1-c1cc(Nc2cc(CS(C)(=N)=O)cc(F)n2)ncc1F (racemic) [Example 17, (rac)-5-Fluoro-4-(4-fluoro-2-methoxyphenyl)-N-{6-fluoro-4-[(S-methylsulfonimidoyl)methyl]pyridin-2-yl}pyridin-2-amine]
13 | – | 4 | COc1cc(F)ccc1-c1cc(Nc2cc(CS(C)(=O)=NC(=O)C(F)(F)F)cc(F)n2)ncc1F (racemic) [Example 18, (rac)-2,2,2-Trifluoro-N-{[(2-fluoro-6-{[5-fluoro-4-(4-fluoro-2-methoxyphenyl)pyridin-2-yl]amino}pyridin-4-yl)methyl](methyl)oxido-λ^6-sulfanylidene}acetamide]
14 | 133 | 2 | COc1cc(F)ccc1-c1cc(Nc2cc(CS(C)(=N)=O)cc(C(F)(F)F)n2)ncc1F (racemic) [Example 21, (rac)-5-Fluoro-4-(4-fluoro-2-methoxyphenyl)-N-{4-[(S-methylsulfonimidoyl)methyl]-6-(trifluoromethyl)pyridin-2-yl}pyridin-2-amine]
15 | 2920 | – | COc1cc(F)ccc1-c1cc(Nc2cc(CS(C)(=N)=O)ccn2)ncc1F (single isomer, unassigned; (+)) [Example 2, (+)-5-Fluoro-4-(4-fluoro-2-methoxyphenyl)-N-{4-[(S-methylsulfonimidoyl)methyl]pyridin-2-yl}pyridin-2-amine]
16 | 2490 | – | COc1cc(F)ccc1-c1cc(Nc2cc(CS(C)(=N)=O)ccn2)ncc1F (single isomer, unassigned; (-)) [Example 3, (−)-5-Fluoro-4-(4-fluoro-2-methoxyphenyl)-N-{4-[(S-methylsulfonimidoyl)methyl]pyridin-2-yl}pyridin-2-amine]
17 | 5150 | – | COc1cc(F)ccc1-c1cc(Nc2cc(CS(C)(=N)=O)ccn2)ncc1F (single isomer, unassigned; enantiomer 1) [Example 16, 5-Fluoro-4-(4-fluoro-2-methoxyphenyl)-N-{4-[(S-methylsulfonimidoyl)methyl]pyridin-2-yl}pyridin-2-amine hydrochloride; enantiomer 1]
18 | 3410 | – | COc1cc(F)ccc1-c1cc(Nc2cc(CS(C)(=N)=O)ccn2)ncc1F.Cl (single isomer, unassigned; enantiomer 2) [Example 14, 5-Fluoro-4-(4-fluoro-2-methoxyphenyl)-N-{4-[(S-methylsulfonimidoyl)methyl]pyridin-2-yl}pyridin-2-amine hydrochloride; enantiomer 2]
